What was measured:
HTT pre-mRNA intron 49 = assay: Ampliseq Junction Expression Index (JEI) of HTT introns in GM04856 cells; type: cell-based, human; conditions: 125 nM, 24 h, vs DMSO, P<0.05
Protocol: Targeted next-generation sequencing Novel splicing events originating from HTT pre-mRNA upon compound treatment were further analyzed using AmpliSeq technology. The GM04856 cells were plated in 6-well plates at 500,000 cells/well in 2000 μl DMEM/10% FBS and incubated for 6 hours in a cell culture incubator (37° C., 5% CO2, 100% relative humidity). Cells were then treated in triplicate with HTT-C1 at 125 nM (in 0.5% DMSO) for 24 hours. Following treatment, RNA was purified using an RNeasy Mini Kit (Qiagen) according to the manufacturer's protocol. Novel splice variants induced by the HTT-C1 compound were detected using Ion AmpliSeq technology (Life Technologies), a PCR-based target enrichment and next-generation sequencing platform. PCR enrichment of HTT exon targets was accomplished by applying a custom HTT AmpliSeq panel. The panel consisted of two separate PCR primer pools, each producing 33 amplicons. […]
For data analysis, Ampliseq reads (Fastq format) were mapped to human genome (hg19) using tophat2 which allowed identification of both known and novel splice junctions. For each one of the 66 introns of HTT gene, a Junction Expression Index (JEI) was calculated using the percent of reads supporting the splicing of the exact annotated intron among all reads supporting the splicing isoforms using either the 5′ splice or/and 3′ splice site of that intron (FIG. 3B). […]

SH-SY5Y cells = assay: RNA-seq analysis of transcriptome and splicing changes in SH-SY5Y cells; type: cell-based, human; conditions: for splicing events altered: 24 h
Protocol: SHY5Y cells were seeded in 6-well plates at 6×10^5 cells/well in 2 mL 10% FBS, DMEM and incubated for 4 hours. Cells were then treated with two biological replicates of HTT-C1 at 24 nM or 100 nM (in 0.1% DMSO), or four biological replicates of vehicle control (DMSO) for 24 hours (37° C., 5% CO2, 100% relative humidity). HEK293 cells transfected with U1 snRNA minigene constructs treated with either duplicates of 1 μM HTT-C1 or 0.5% DMSO control and incubated for 48 hours (37° C., 5% CO2, 100% relative humidity).
For library preparation and sequencing, mRNA was enriched from about 3 μg of total RNA using oligo(dT) beads (ThermoFisher Scientific). The mRNA was fragmented randomly using fragmentation buffer followed by cDNA synthesis using the mRNA template and random hexamers primer. Second-strand synthesis buffer (Illumina), deoxynucleotides, ribonuclease H and DNA polymerase I were added to initiate second-strand synthesis. After a series of terminal repair, A-ligation and sequencing adaptor ligation, the double-stranded cDNA library was size selected and enriched by PCR. RNA libraries were sequenced in a HiSeq sequencer (Illumina).
RNA sequencing reads were mapped to human genome (hg19) using Spliced Transcripts Alignment to a Reference (STAR) software (version 2.5) (Dobin et L., (2013) Bioinformatics 1; 29(1):15-21). Uniquely mapped reads (with MAPQ>10) having <5 nt/100 nt mismatches were used for analysis.
For gene expression analysis, the number of reads in a coding sequence (CDS) region of protein-coding genes and exonic regions of non-coding genes were counted and analyzed using DESeq2 (Love et al., (2014) Genome Biology, 15:550). For splicing analysis, reads were counted for different exons or exonic regions. For each exon, a Percent-Spliced-In (PSI) value was calculated using the percent of average read number supporting the inclusion of the exon (include both the upstream and downstream junctions) among all reads supporting either the inclusion or the exclusion of an exon. A minimal of 20 for the denominator of PSI calculation was required. Otherwise a “NA” value would be generated. PSI values for biological replicates were averaged and the PSI difference between two treatment groups was calculated. For statistical test, a 2×2 read counts table was made for each exon with rows for reads supporting inclusion or exclusion and columns for the two comparing sample groups (biological replicates were combined). Fisher's Exact Test was used for statistical test. PSI change of >20% (or <−20%) and P-value <0.001 was used to select exons being regulated by the treatment.

[1] = Oral pharmacokinetics in WT littermates of the BACHD colony; type: in vivo, mouse; conditions: single oral dose of 10 mg/kg
Protocol: Oral pharmacokinetics (PK) of compounds was evaluated in WT littermates from the BACHD colony (FVB background). Mice were treated with test compounds (10 mg/kg) by oral gavage in 0.5% hydroxypropylmethyl cellulose (HPMC) with 0.1% Tween 80. Blood was collected by terminal cardiac puncture at specified time points (3 mice per time point) and centrifuged to generate plasma. Brain tissue was collected at the time of blood collection and homogenized in water. Protein was precipitated from plasma and brain homogenates with acetonitrile, methanol mixture (5:1, v:v) containing an internal standard that is a close analog of the test compounds. The mixture was filtered through an EMD Millipore MultiScreen™ Solvinert Filter Plate (MSRLN04, Millipore, Burlington, Mass.). Calibration standards were prepared in the same matrix and processed with the testing samples. Filtrates were analysed using Acquity ultra performance liquid chromatography (UPLC) system (Waters Corporation) tandem with Xevo TQ-s Spectrometer (Waters Corporation). Samples were injected on to a Waters UPLC Acquity BEH C18 Column (2.1*50 mm, 1.7 μm) maintained at 50° C. The injection volume was 3 μL and the mobile phase flow rate was 0.45 mL/min. The mobile phase consisted of 2 solvents: A) 0.1% formic acid in water and B) 0.1% formic acid in acetonitrile. […]

| SMILES | reduction of junction expression index (JEI) in intron 49 (HTT pre-mRNA intron 49) [%] | UP cassette exons with no annotation for at least one splice site (SH-SY5Y cells; 24 nM) [%] | expression of HTT (RNA-seq) (SH-SY5Y cells; 24 nM (~2x the IC50)) | splicing events altered (SH-SY5Y cells; 24 nM) | UP cassette exons with no annotation for at least one splice site (SH-SY5Y cells; 100 nM) [%] | splicing events altered (SH-SY5Y cells; 100 nM) | pseudoexons activated (SH-SY5Y cells; FIG. 6D comparison with U1-GA variant) | pseudoexons induced (SH-SY5Y cells; at either concentration (24 nM or 100 nM)) | plasma exposure [1] |
| --- | --- | --- | --- | --- | --- | --- | --- | --- | --- |
| CC1(C)CC(Oc2ccc(-c3ccc(-c4ccnc(O)c4)cc3O)nn2)CC(C)(C)N1 [HTT-C1] | > 25 | – | – | – | – | – | – | – | – |
| CC1(C)CC(Oc2ccc(-c3ccc(-c4cn[nH]c4)cc3O)nn2)CC(C)(C)N1 [HTT-C2] | – | 22 | selectively and potently downregulated expression of HTT | 165 | 44 | 215 | 27 | 31 | superior exposure to HTT-C1 |
